# Results taken from patent publication US20080021034A1, “Compositions and methods for modulating gated ion channels” (PainCeptor Pharma Corporation, priority 2006, published 2008).
# Test system: proton-gated ion channels (ASIC)
# Assay: Two-electrode voltage clamp in Xenopus laevis oocytes expressing gated ion channels (Xo)
# Type: cell-based
# Details: acidic solution (pH<7) activation
# Procedure: Two-electrode voltage clamp electrophysiological assays in Xenopus laevis oocytes expressing gated ion channels are performed as follows:
# Oocytes are surgically removed from adult Xenopus laevis and treated for 2 h at room temperature with 1 mg/ml type I collagenase (Sigma) in Barth's solution under mild agitation. Selected oocytes at stage IV-V are defolliculated manually before nuclear microinjection of 2.5-5 ng of a suitable expression vector, such as pCDNA3, comprising the nucleotide sequence encoding a gated ion channel subunit protein. In such an experiment, the oocytes express homomultimeric proton-gated ion channels on their surface. In an alternate experiment, one, two, three or more vectors comprising the coding sequences for distinct gated ion channel subunits are co-injected in the oocyte nuclei. In the latter case, oocytes express heteromultimeric proton-gated ion channels. For example, ASIC2a and/or ASIC3 subunits in pcDNA3 vector are co-injected at a 1:1 cDNA ratio. After 2-4 days of expression at 19° C. in Barth's solution containing […] gentamicin and 1.8 mM CaCl2, gated ion channels are activated by applying an acidic solution (pH<7) and currents are recorded in a two electrode voltage-clamp configuration, using an OC-725B amplifier (Warner Instruments). Currents are acquired and digitized at 500 Hz on an Apple Imac G3 computer with an A/D NB-MIO-16XL interface (National Instruments) and recorded traces are post-filtered at 100 Hz in Axograph (Axon Instruments) (Neher, E. and Sakmann, B. (1976) Nature 260:799-802). Once impaled with the microelectrodes, oocytes are continuously superfused at 10-12 ml/min with a modified Ringer's solution containing 97 mM NaCl, 2 mM KCl, 1.8 mM CaCl2, and 10 mM HEPES brought to pH 7.4 with NaOH (Control Ringer). Test Ringer solution is prepared by replacing HEPES with MES and adjusting the pH to the desired acidic value. Compounds of the present invention are prepared in both the Control and Test Ringer solutions and applied to oocytes at room temperature through a computer-controlled switching valve system. Osmolarity of all solutions is adjusted to 235 mOsm with choline chloride. Similarly, recordings can also be acquired in an automated multichannel oocytes system as the OpusExpress™ (Molecular Devices, Sunnyvale, USA).
Structure (SMILES),percent effect on acid-evoked current (two-electrode voltage clamp) [%],Xo: percent binding data [%]
CN1CC[C@@H]2/C(=N\NC(N)=O)c3ccccc3[C@@H]2C1 [Compound 43],< 20,–
CN1CCC(O)(C(=NNC(N)=O)c2ccccc2)CC1 [Compound 52],< 20,–
COC(=O)C1=C(C(=O)OC)C2CN(C(=O)OC(C)(C)C)CCC2=C(c2ccccc2)C1 (stereo not shown) [Compound 6],< 20,–
CN1CCC2=C(c3ccccc3)CC[C@@H](C(=O)N3CCNCC3)[C@H]2C1 [Compound 22],< 20,–
CC(C)(C)OC(=O)N1CCC2=C(c3ccccc3)CC=C(C#N)C2C1 (stereo not shown) [Compound 5],< 20,–
CCOC(=O)N1NCC(c2ccccc2)=C2CCN(C)CC21 (stereo not shown) [Compound 3],< 20,–
CN1CC=C(/C(=N\Nc2ccc([N+](=O)[O-])cc2[N+](=O)[O-])c2ccccc2)CC1 [Compound 44],–,< 20
C#CCNC(=O)[C@@H]1CCC(c2ccccc2)=C2CCN(C)CC21 (stereo partly shown) [Compound 15],< 20,–
CC(=O)N[C@@H]1CCC(c2ccccc2)=C2CCN(C)C[C@@H]21 [Compound 24],< 20,–
CN1CCC2=C(c3ccccc3)Cn3c(=O)n(C)c(=O)n3C2C1 (stereo not shown) [Compound 56],< 20,–
CN1CCC2=C(c3ccccc3)CCC(C(=O)OCCO)C2C1 (stereo not shown) [Compound 11],< 20,–
CN1CCC2=C(c3ccccc3)CCC(NC(=O)c3ccc(/C=N/O)cc3)C2C1 (stereo not shown) [Compound 36],< 20,–
CN1CCC2=C(c3ccccc3)CCC(NC(=O)c3ccc(C=O)cc3)C2C1 (stereo not shown) [Compound 33],< 20,–
COC(=O)C1=CCC(c2ccccc2)=C2CCN(C(=O)OC(C)(C)C)CC12 (stereo not shown) [Compound 8],< 20,–
CN1CCC2=C(c3ccccc3)CC[C@@H](C(=O)NCc3ccccc3)[C@H]2C1 [Compound 21],< 20,–
CN1CCC2=C(c3ccccc3)CCC(NC(=O)c3ccc(/C=N/O)cc3)[C@H]2C1 (stereo partly shown) [Compound 28],< 20,–
CN1CCC(O)(/C(=N\NC(=O)c2ccccc2[N+](=O)[O-])c2ccccc2)CC1 [Compound 50],< 20,–
CN1CCC2=C(c3ccccc3)CC[C@@H](C(=O)Nc3ccccc3Cl)C2C1 (stereo partly shown) [Compound 14],< 20,–
CN1CCC2=C(c3ccccc3)CC=C(C#N)[C@H]2C1 [Compound 7],< 20,–
CC(C)(C)OC(=O)N1CCC2=C(c3ccccc3)CC[C@@H]([N+](=O)[O-])[C@H]2C1 [Compound 31],< 20,–
CCOC(=O)N1CC(c2ccccc2)=C2CCN(C(=O)OC(C)(C)C)C[C@@H]2N1C(=O)OCC [Compound 2],< 20,–
CN1CCC(O)(/C(=N\Nc2ccccc2)c2ccccc2)CC1 [Compound 46],< 20,–
CN1CCC2=C(c3ccccc3)Cn3c(=O)n(-c4ccccc4)c(=O)n3C2C1 (stereo not shown) [Compound 57],< 20,–
CCOC(=O)C1CCC(c2ccccc2)=C2CCN(C)CC21 (stereo not shown) [Compound 10],< 20,–
CN1CCC(O)(/C(=N\Nc2ccccn2)c2ccccc2)CC1 [Compound 48],< 20,–
CN1CCC2=C(c3ccccc3)CCC(NC(=O)c3cccc(O)c3)C2C1 (stereo not shown) [Compound 30],< 20,–
CN1CC[C@@H]2/C(=N/Nc3ccc([N+](=O)[O-])cc3[N+](=O)[O-])c3ccccc3[C@@H]2C1 [Compound 39],–,< 20
CN1CCC(O)(/C(=N\NC(=O)c2ccc(O)cc2O)c2ccccc2)CC1 [Compound 45],< 20,–

Structure (SMILES),percent effect on acid-evoked current (two-electrode voltage clamp) [%],Xo: percent binding data [%]
N#CC1=CCC(c2ccccc2)=C2CCNCC12 (stereo not shown) [Compound 4],< 20,–
CCOC(=O)c1cccnc1N/N=C(/c1ccccc1)C1(O)CCN(C)CC1 [Compound 51],< 20,–
CN1CCC(O)(/C(=N/N)c2ccccc2)CC1 [Compound 39a],< 20,–
CN1CCC2=C(c3ccccc3)CC[C@@H](NC(=O)c3ccc(O)cc3)[C@H]2C1 [Compound 29],–,< 20
CN1CC[C@@H]2C(=O)c3ccccc3[C@@H]2C1 [Compound 40],< 20,–
CN1CCC2=C(c3ccccc3)CCC(N)C2C1 (stereo not shown) [Compound 26],< 20,–
CN1CC[C@@H]2/C(=N/O)c3ccccc3[C@@H]2C1 [Compound 41],< 20,–
CN1CCC(O)(/C(=N\Nc2ccc([N+](=O)[O-])cc2[N+](=O)[O-])c2ccccc2)CC1 [Compound 42],–,< 20
CN1CCC(O)(/C(=N\NC(=O)c2ccccc2N)c2ccccc2)CC1 [Compound 37],< 20,–
CN1CCC(O)(/C(=N\NC(=O)c2ccco2)c2ccccc2)CC1 [Compound 47],< 20,–
CN1CCC2=C(c3ccccc3)CCC(NC(=O)c3ccc(Cl)cc3)C2C1 (stereo not shown) [Compound 35],< 20,–
CN1CCC2=C(c3ccccc3)CC[C@@H](C(=O)Nc3ccccn3)C2C1 (stereo partly shown) [Compound 18],< 20,–
CN1CCC2=C(c3ccccc3)CC[C@@H](C(=O)N(C)C)C2C1 (stereo partly shown) [Compound 16],< 20,–
CCOC(=O)C1=C(Nc2ccccc2)CCN(Cc2ccccc2)C1 [Compound 55],–,<20
CN1CCC(O)(/C(=N\NC(=O)c2cccc(O)c2)c2ccccc2)CC1 [Compound 54],< 20,–
CN1CCC2=C(c3ccccc3)CC[C@@H](NC(=O)c3ccccc3)[C@H]2C1 [Compound 25],< 20,–
CN1CCC2=C(c3ccccc3)CCC(C(=O)Nc3ccc(Cl)cc3)C2C1 (stereo not shown) [Compound 13],< 20,–
CN1CCC2=C(c3ccccc3)CC[C@@H]([N+](=O)[O-])[C@H]2C1 [Compound 23],< 20,–
CN1CCC2=C(c3ccccc3)CCC(NC(=O)c3cccc(/C=N/O)c3)[C@H]2C1 (stereo partly shown) [Compound 27],< 20,–
CN1CCC2=C(c3ccccc3)CCC(NC(=O)c3ccccc3O)C2C1 (stereo not shown) [Compound 34],< 20,–
CCOC(=O)N1CC(c2ccccc2)=C2CCN(C)CC2N1C(=O)OCC (stereo not shown) [Compound 1],< 20,–
CN1CCC2=C(c3ccccc3)CC[C@@H](C(=O)NCCO)C2C1 (stereo partly shown) [Compound 20],< 20,–
CN1CCC2=C(c3ccccc3)CC[C@@H](C(=O)Nc3cccnc3)C2C1 (stereo partly shown) [Compound 19],< 20,–
CN1CCC2=C(c3ccccc3)CCC(C(=O)Nc3cccc(Cl)c3)C2C1 (stereo not shown) [Compound 12],< 20,–
CN1CCC2=C(c3ccccc3)CCC(C(=O)O)C2C1 (stereo not shown) [Compound 9],< 20,–
CN1CCC2=C(c3ccccc3)CCC(NC(=O)c3cccc(C=O)c3)C2C1 (stereo not shown) [Compound 32],< 20,–
CN1CCC2=C(c3ccccc3)CC[C@@H](C(=O)Nc3ccccc3)C2C1 (stereo partly shown) [Compound 17],< 20,–
